The target of assay [1] is T1, Lysyl oxidase homolog 2 (Mus musculus, UniProt P58022).
T1 sequence (P58022 whole entry): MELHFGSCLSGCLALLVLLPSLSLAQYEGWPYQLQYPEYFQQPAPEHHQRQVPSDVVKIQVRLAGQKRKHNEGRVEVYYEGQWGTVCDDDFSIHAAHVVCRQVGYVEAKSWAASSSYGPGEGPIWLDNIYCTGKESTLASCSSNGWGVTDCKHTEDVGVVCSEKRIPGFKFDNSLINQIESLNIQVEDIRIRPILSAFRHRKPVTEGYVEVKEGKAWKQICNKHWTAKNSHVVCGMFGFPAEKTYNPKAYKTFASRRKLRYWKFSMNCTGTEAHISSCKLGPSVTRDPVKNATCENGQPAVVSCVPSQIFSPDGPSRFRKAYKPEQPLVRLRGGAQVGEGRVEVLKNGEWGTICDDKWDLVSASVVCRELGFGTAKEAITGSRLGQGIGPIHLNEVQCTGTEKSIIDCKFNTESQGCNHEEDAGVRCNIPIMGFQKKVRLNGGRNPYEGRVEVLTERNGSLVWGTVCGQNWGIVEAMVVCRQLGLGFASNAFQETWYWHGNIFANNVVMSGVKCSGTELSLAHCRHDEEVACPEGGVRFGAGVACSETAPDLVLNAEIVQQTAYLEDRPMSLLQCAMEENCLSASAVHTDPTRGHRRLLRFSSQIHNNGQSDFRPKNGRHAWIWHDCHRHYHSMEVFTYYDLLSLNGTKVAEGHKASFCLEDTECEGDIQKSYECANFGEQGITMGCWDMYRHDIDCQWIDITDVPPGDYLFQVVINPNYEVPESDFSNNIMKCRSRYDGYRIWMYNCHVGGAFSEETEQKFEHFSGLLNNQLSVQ
Nature of the assay: (§1) Inhibition of recombinant mouse LOXL2 expressed in mouse whole blood assessed as reduction of H2O2 production from oxidative deamination of DAP preincubated for 2 hrs followed by substrate addition measured every 2 mins for 1 hr by amplex red reagent-based fluorescence assay.

Assay [2] addresses T2, Lysyl oxidase homolog 2 (Mus musculus) (UniProt P58022).
T2 sequence (whole entry): T1 sequence (P58022 whole entry)
Described as §1.

Assay [3] concerns the target T3, Lysyl oxidase homolog 2 (Homo sapiens, UniProt Q9Y4K0).
T3 sequence (Q9Y4K0 whole entry): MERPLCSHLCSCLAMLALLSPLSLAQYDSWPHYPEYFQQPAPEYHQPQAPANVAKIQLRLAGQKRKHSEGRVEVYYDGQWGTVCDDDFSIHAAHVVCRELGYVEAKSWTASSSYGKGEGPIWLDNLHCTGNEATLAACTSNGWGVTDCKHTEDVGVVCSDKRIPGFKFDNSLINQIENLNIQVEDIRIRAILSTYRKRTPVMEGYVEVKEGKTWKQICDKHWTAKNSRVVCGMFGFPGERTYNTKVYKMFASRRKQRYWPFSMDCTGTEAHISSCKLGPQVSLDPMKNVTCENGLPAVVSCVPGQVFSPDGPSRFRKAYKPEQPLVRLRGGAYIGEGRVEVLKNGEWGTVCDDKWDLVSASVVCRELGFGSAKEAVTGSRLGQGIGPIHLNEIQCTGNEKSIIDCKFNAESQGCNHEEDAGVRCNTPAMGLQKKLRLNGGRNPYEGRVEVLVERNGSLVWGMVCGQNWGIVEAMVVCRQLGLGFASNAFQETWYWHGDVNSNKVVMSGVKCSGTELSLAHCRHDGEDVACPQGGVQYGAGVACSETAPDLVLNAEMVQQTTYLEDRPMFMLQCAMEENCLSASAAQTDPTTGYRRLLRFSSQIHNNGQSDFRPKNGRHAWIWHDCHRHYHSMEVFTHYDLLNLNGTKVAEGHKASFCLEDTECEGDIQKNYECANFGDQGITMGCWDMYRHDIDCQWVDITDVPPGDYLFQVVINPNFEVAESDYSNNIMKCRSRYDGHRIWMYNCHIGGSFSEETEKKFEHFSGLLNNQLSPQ
Nature of the assay: Inhibition of human LOXL2 expressed in CHO cells assessed as reduction of H2O2 production from oxidative deamination of DAP preincubated for 2 hrs followed by substrate addition measured every 2 mins for 1 hr by amplex red reagent-based fluorescence assay. In kind it is cell-based.

Results on 1 compound are retold here after ChEMBL document CHEMBL4049456, “Identification of 4-(Aminomethyl)-6-(trifluoromethyl)-2-(phenoxy)pyridine Derivatives as Potent, Selective, and Orally Efficacious Inhibitors of the Copper-Dependent Amine Oxidase, Lysyl Oxidase-Like 2 (LOXL2)” (J Med Chem, 2017).

One may read the IC50 as the concentration needed to halve the response being measured. Broadly, the IC90 is the concentration needed for an effect of 90%. In the case of `Cl.NCc1cc(Oc2cccc(C(=O)N3C[C@@H](O)[C@H](F)C3)c2)nc(C(F)(F)F)c1` (racemic), the IC50 in assay [1] was determined as 860 nM; in assay [3], 78 nM. Further, the IC90 in assay [2] amounted to 5600 nM.
